Columns and labels:
[1] = tested on: A549 (human lung adenocarcinoma cells); assay: CCK-8 cytotoxicity assay, A549; format: cell-based; conditions: A549, 48 h, read-out: Cytotoxicity IC50 Lung A549
Protocol: (§1) The cytotoxicity of the newly synthesized quinolinylphosphonates 7 was evaluated in vitro by testing their antiproliferative activities against several human cancer cell lines: A549 (human lung adenocarcinoma cells), SKOV3 (human ovarian carcinoma), and HEK293 (human embryonic kidney). In order to analyze the selective cytotoxicity facing exclusively cancerous cell lines, cytotoxicity against non-cancerous cell lines (MRC-5, lung fibroblast cells) was also evaluated. Cell counting kit (CCK-8) assay was employed to assess growth inhibition and, cell proliferation inhibitory activities of compounds that are listed in Table 1 as IC50 values. […] According to the data presented in Table 1, in general, all these phosphorated derivatives present higher selective cytotoxicity in the A549 cell line than in the other two cell lines, SKOV3 and HEK293, although slight differences are observed compared to human ovarian carcinoma (SKOV3).
(§2) Cells were cultured according to the supplier’s instructions, A549 (ATCC® CCL-185), SKOV3 (ATCC® HTB-77), HEK293 (CLS GmbH), MRC-5 (ATCC® CCL-171™). Cells were seeded in 96-well plates at a density of 2–2.5 × 10^3 cells per well and incubated overnight in 0.1 mL of media supplied with 10% Fetal Bovine Serum (Lonza, Basel, Switzerland) in a 5% CO2 incubator at 37 °C. On day 2, drugs (concentration between 0.5–50 μM) were added and samples were incubated for 48 h. After treatment, 10 μL of cell counting kit-8 was added to each well for an additional 2 h incubation at 37 °C. The absorbance of each well was determined by an Automatic Elisa Reader System at 450 nm wavelength. CPT was purchased from Sigma-Aldrich and used as a positive control.

[2] = tested on: HEK293 (human embryonic kidney); assay: CCK-8 cytotoxicity assay, HEK293; format: cell-based; conditions: HEK293, 48 h, CCK-8, 50% growth inhibition
Protocol: as §1, §2

murine splenocytes = assay: Splenocyte viability, Alamar Blue; format: cell-based, BALB/c mice; conditions: for IC50: Mus musculus, Splenocyte, read-out: IC50 Splenocites; for SI (selectivity index): ratio IC50 splenic cells / EC50 amastigotes
Protocol: The viability of splenocytes cells against the different compounds was measured using the Alamar Blue staining method (Invitrogen, MA, USA). For this purpose, these cells were obtained following the protocol indicated in the previous section, from uninfected mice. Plots of absorbance of viable cells (obtained following manufacturer’s recommendations of Alamar Blue) vs compounds concentration were used to calculate CC50 values. Plots were fitted by nonlinear analysis using the Sigma Plot 10.1 statistical package. The assays were performed by triplicate.
The selectivity index for each compound was calculated as the ratio between the IC50 value for splenic cells and the EC50 value for amastigotes.

[3] = tested on: leishmanial TOP1B (LTOP1B); assay: LTOP1B relaxation activity assay; format: biochemical, Leishmania; conditions: 100 µM of compound, 1 min
Protocol: The inhibition of relaxation activity of LTOP1B by the compounds was tested at 100 µM. The reactions were performed for 1 min in the way described in the experimental protocols section. The percentage of inhibition was calculated by measuring the intensity of the band corresponding to the supercoiled DNA when the different DNA topoisomers were separated in an agarose gel.
Purification of leishmanial DNA topoisomerase 1B (LTOP1B) was carried out as reported previously. Shortly, LTOP1B was purified using the deficient in TOP1 activity yeast strain, EKY3 MAT α ura3–52 his3Δ20ting, from the union of the bicistronic expression vector pESC-URA to both subunits of LTOP1B. The yeast cells were grown in a yeast synthetic drop-out medium without uracil (Sigma) supplemented with 2% raffinose (w/v) to OD600: 0.8–1 and induced for 10 h with 2% galactose (w/v). After that, the cells were harvested, washed with cold TEEG buffer (50 mM Tris–HCl pH 7.4, 1 mM EDTA, 1 mM EGTA, 10% glycerol), resuspended in 15 mL of 1× TEEG buffer supplemented with 0.2 M KCl and a protease inhibitors cocktail (Thermo Scientific, Waltham, MA, USA) and lysed. Protein extract obtained was loaded on a 5 mL Heparin Sepharose column (GE Healthcare, MA, USA). LTOP1B enzyme was eluted at 4 °C with a discontinuous gradient of KCl (0.2, 0.4, 0.6 M) in TEEG buffer.
Leishmanial TOP1B activity was tested by the relaxation of supercoiled plasmid DNA assay. Each reaction contained: one unit of purified LTOP1B enzyme, 100 µM of each compound, 0.5 μg of supercoiled pSK DNA, 10 mM Tris-HCl buffer pH 7.5, 5 mM MgCl2, 0.1 mM EDTA, 15 µg/mL bovine serum albumin, and 150 mM KCl. The final volume of each reaction was 20 µL. Reaction mixtures were incubated for 1 min at 37 °C and stopped by the addition of a 4 µL loading buffer (5% sarkosyl, 0.12% bromophenol blue, 25% glycerol). The DNA topoisomers were resolved in 1% agarose gels by electrophoresis in 0.1 M Tris borate EDTA buffer (pH 8.0) at 2 V/cm for 16 h and visualized with UV illumination after ethidium bromide (0.5 μg/mL) staining. The percentage of inhibition was calculated by measuring the intensity of the band corresponding to the supercoiled DNA after separating and staining the different DNA topoisomers. This analysis was performed using the GeneTools from Syngene software (Version 4.3.8, MD, USA).

Row | Compound | IC50 [1] | IC50 [2] | IC50 (murine splenocytes) | SI (selectivity index) (murine splenocytes) | LTOP1B Inhibition [3] | melting point
1 | CCOP(=O)(OCC)c1cccc2c(-c3ccccc3)cc(-c3ccccc3OC)nc12 [7d, Diethyl (2-(2-methoxyphenyl)-4-phenylquinolin-8-yl)phosphonate] | 12.3 ± 4.1 µM | > 50 µM | 30.1 ± 6.05 µM | 1.5 | 46.41% | 121 to 123 °C
2 | CCOP(=O)(OCC)c1ccc2nc(-c3ccc(F)c(F)c3)cc(-c3ccccc3)c2c1 [7s, Diethyl (2-(3,4-difluorophenyl)-4-phenylquinolin-6-yl)phosphonate] | 6.19 ± 0.67 µM | 19.2 ± 1.13 µM | 26.2 ± 0.51 µM | 1.8 | 14.56% | 134 to 136 °C
3 | CCOP(=O)(OCC)c1ccc2nc(-c3ccc(F)cc3)cc(-c3ccccc3)c2c1 [7r, Diethyl (2-(4-fluorophenyl)-4-phenylquinolin-6-yl)phosphonate] | 2.8 ± 1.24 µM | 36.9 ± 8.06 µM | 28.1 ± 1.23 µM | 1 | 1.94% | 137 to 139 °C
4 | Cc1ccc(-c2cc(-c3ccc(F)c(F)c3)nc3c(P(=O)(OC(C)C)OC(C)C)cccc23)cc1 [7q, Diisopropyl (2-(3,4-difluorophenyl)-4-(p-tolyl)quinolin-8-yl)phosphonate] | 8.24 ± 2.42 µM | 12.3 ± 0.71 µM | 28.3 ± 9.16 µM | 2 | 52.65% | 140 to 142 °C
5 | CCOP(=O)(OCC)c1cccc2c(-c3ccccc3)cc(-c3ccc(OC)cc3)nc12 [7c, Diethyl (2-(4-methoxyphenyl)-4-phenylquinolin-8-yl)phosphonate] | 12.6 ± 1.3 µM | 38.3 ± 8.9 µM | 15.9 ± 1.65 µM | 1.9 | 45.45% | 120 to 122 °C
6 | CCOP(=O)(OCC)c1cccc2c(-c3ccc(C)cc3)cc(-c3ccc(F)cc3)nc12 [7j, Diethyl (2-(4-fluorophenyl)-4-(p-tolyl)quinolin-8-yl)phosphonate] | 0.83 ± 0.01 µM | > 50 µM | 14.5 ± 1.56 µM | 1.5 | 41.21% | 139 to 141 °C
7 | CCOP(=O)(OCC)c1cccc2c(-c3ccccc3)cc(-c3ccc(F)cc3)nc12 [7b, Diethyl (4-Phenyl-2-(fluorophenyl)quinolin-8-il) phosphonate] | 2.16 ± 0.29 µM | 43 ± 4.65 µM | 12.2 ± 1.77 µM | 0.8 | 24.43% | 116 to 118 °C
8 | CCOP(=O)(OCC)c1ccc2nc(-c3ccc(F)c(F)c3)cc(-c3ccc(F)cc3)c2c1 [7u, Diethyl (2-(3,4-difluorophenyl)-4-(4-fluorophenyl)quinolin-6-yl)phosphonate] | 4.33 ± 1.11 µM | > 50 µM | > 100 µM | >3.8 | 50.24% | 130 to 132 °C
9 | CCOP(=O)(OCC)c1ccc2nc(-c3ccc(F)c(F)c3)cc(-c3ccc(C)cc3)c2c1 [7x, Diethyl (2-(3,4-difluorophenyl)-4-(p-tolyl)quinolin-6-yl)phosphonate] | 3.05 ± 0.86 µM | > 50 µM | 32.3 ± 3.36 µM | 1 | 43.84% | 158 to 160 °C
10 | Cc1ccc(-c2cc(-c3ccc(F)cc3)nc3c(P(=O)(OC(C)C)OC(C)C)cccc23)cc1 [7p, Diisopropyl (2-(4-fluorophenyl)-4-(p-tolyl)quinolin-8-yl)phosphonate] | 6.84 ± 1.74 µM | 14.4 ± 1.69 µM | 21.2 ± 3.5 µM | 0.9 | 41.62% | 121 to 123 °C
11 | CCOP(=O)(OCC)c1cccc2c(-c3ccccc3)cc(-c3cccc4ccccc34)nc12 [7f, Diethyl (2-(naphthalen-1-yl)-4-phenylquinolin-8-yl)phosphonate] | 2.66 ± 0.16 µM | 35.7 ± 3.13 µM | 12.2 ± 1.49 µM | 0.6 | 7.5% | 140 to 142 °C
12 | CC(C)OP(=O)(OC(C)C)c1cccc2c(-c3ccccc3)cc(-c3ccc(F)c(F)c3)nc12 [7m, Diisopropyl (2-(3,4-difluorophenyl)-4-phenylquinolin-8-yl)phosphonate] | 18.4 ± 1.4 µM | > 50 µM | 19.8 ± 3.76 µM | 1.9 | 5.41% | 127 to 129 °C
13 | CCOP(=O)(OCC)c1cccc2c(-c3ccc(F)cc3)cc(-c3ccccc3)nc12 [7g] | 2.27 ± 0.32 µM | 24.4 ± 3.46 µM | 33.9 ± 7.98 µM | 2.8 | 16.49% | 172 to 174 °C
14 | CC(C)OP(=O)(OC(C)C)c1cccc2c(-c3ccc(F)cc3)cc(-c3ccc(F)c(F)c3)nc12 [7o, Diisopropyl (2-(3,4-difluorophenyl)-4-(4-fluorophenyl)quinolin-8-yl)phosphonate] | 6.79 ± 3.87 µM | 21 ± 4.05 µM | 18.6 ± 1.1 µM | 0.9 | 73.27% | 144 to 146 °C
15 | CCOP(=O)(OCC)c1cccc2c(-c3ccc(F)cc3)cc(-c3ccc(F)cc3)nc12 [7h, Diethyl (2,4-bis(4-fluorophenyl)quinolin-8-yl)phosphonate] | 3.07 ± 0.22 µM | 15.7 ± 1.74 µM | 20.3 ± 7.49 µM | 0.8 | 22.44% | 121 to 123 °C
16 | CC(C)OP(=O)(OC(C)C)c1cccc2c(-c3ccc(F)cc3)cc(-c3ccc(F)cc3)nc12 [7n, Diisopropyl (2,4-bis(4-fluorophenyl)quinolin-8-yl)phosphonate] | 10.6 ± 1.73 µM | 15 ± 0.99 µM | 15.3 ± 1.72 µM | 2.8 | 43.31% | 113 to 115 °C
17 | CC(C)OP(=O)(OC(C)C)c1cccc2c(-c3ccccc3)cc(-c3ccc(F)cc3)nc12 [7l, Diisopropyl (2-(4-fluorophenyl)-4-phenylquinolin-8-yl)phosphonate] | 5.01 ± 2.7 µM | 10.1 ± 1.26 µM | 22.1 ± 4.7 µM | 1.1 | 3.55% | 107 to 109 °C
18 | CCOP(=O)(OCC)c1cccc2c(-c3ccccc3)cc(-c3ccccc3)nc12 [7a, Diethyl (2,4-diphenylquinolin-8-yl)phosphonate] | 2.26 ± 0.59 µM | 27.3 ± 2.22 µM | 3.61 ± 0.45 µM | 0.9 | 58.87% | 118 to 120 °C

From publication PMC8399847, “Hybrid Quinolinyl Phosphonates as Heterocyclic Carboxylate Isosteres: Synthesis and Biological Evaluation against Topoisomerase 1B (TOP1B)” (Pharmaceuticals, 2021)
